Experimental data published in article PMC4076210, “Discovery of Novel AKT Inhibitors with Enhanced Anti-Tumor Effects in Combination with the MEK Inhibitor” (PLoS ONE, 2014).
Read-outs that look alike come from different tables or passages of the source.

Experiments:
[1] = biological target: T1, PRAK(h) (Homo sapiens, UniProt Q8IW41); assay: Kinase panel; type: biochemical
T1 construct: purchased Millipore KinaseProfiler
T1 sequence (Q8IW41 1-473): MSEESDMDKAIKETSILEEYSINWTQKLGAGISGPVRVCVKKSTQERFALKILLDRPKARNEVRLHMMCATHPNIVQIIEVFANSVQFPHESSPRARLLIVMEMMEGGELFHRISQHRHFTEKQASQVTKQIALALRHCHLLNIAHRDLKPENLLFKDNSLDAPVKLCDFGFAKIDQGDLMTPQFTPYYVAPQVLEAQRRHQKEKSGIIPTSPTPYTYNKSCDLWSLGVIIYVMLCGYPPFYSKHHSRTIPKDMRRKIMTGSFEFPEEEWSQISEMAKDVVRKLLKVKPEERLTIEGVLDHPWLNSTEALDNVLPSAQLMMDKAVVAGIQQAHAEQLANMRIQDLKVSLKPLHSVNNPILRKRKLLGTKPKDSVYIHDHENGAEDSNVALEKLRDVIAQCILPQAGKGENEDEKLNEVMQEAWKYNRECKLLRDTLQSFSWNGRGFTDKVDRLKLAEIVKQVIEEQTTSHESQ

[2] = biological target: T2, JAK3(h) (Homo sapiens, UniProt P52333); assay: Kinase panel; type: biochemical
T2 construct: purchased Millipore KinaseProfiler
T2 sequence (P52333 1-1124): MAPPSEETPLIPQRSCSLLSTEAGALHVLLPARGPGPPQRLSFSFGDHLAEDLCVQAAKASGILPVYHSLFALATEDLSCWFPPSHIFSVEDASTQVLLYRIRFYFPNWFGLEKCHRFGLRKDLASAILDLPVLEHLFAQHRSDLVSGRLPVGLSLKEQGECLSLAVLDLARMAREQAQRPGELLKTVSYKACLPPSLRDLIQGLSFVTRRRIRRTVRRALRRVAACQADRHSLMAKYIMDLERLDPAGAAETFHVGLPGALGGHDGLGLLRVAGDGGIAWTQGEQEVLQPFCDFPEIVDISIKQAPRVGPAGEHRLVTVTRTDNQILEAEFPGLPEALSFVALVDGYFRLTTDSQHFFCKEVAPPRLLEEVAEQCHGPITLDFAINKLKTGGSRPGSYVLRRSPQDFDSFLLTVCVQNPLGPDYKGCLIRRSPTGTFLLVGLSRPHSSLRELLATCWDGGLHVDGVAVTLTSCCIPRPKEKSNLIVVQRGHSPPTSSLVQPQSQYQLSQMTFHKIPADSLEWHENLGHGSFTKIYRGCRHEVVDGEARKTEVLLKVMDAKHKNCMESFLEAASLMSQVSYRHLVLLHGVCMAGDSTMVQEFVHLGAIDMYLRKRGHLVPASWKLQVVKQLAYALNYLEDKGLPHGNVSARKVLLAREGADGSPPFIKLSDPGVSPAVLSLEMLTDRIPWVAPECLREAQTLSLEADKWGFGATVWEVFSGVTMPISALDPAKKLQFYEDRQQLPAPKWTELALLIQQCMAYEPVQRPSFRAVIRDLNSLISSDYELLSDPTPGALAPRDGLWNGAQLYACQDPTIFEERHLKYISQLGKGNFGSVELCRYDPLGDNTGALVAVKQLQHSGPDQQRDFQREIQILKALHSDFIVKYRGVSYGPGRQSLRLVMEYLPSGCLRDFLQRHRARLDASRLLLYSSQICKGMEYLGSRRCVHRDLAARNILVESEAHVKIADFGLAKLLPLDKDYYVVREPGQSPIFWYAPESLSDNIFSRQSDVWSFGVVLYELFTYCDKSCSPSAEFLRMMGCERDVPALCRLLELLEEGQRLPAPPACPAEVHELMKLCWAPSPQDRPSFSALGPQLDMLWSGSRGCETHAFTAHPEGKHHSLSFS

[3] = test system: phospho-PRAS40 in BT474 tumor xenografts; assay: In vivo dose response pharmacodynamic assay (phospho-PRAS40 ELISA); parameters: species or system mouse; conditions: 2 h post last dose
Method: Protein lysates were analyzed by phospho-PRAS40 ELISA according to the methods described above. Concentration of the test compounds in the tissue and blood was analyzed using protein precipitation with acetonitrile, followed by HPLC/MS/MS analysis using positive ion atmospheric pressure chemical ionization or Turbo ionspray ionization (API 4000 or API 5000, Applied Biosystems). The lower level of detection of compound was 10 ng/mL and the assays were linear over a 100- to a 1000-fold drug concentration range.

[4] = biological target: T3, CDK2/cyclinA(h) (Homo sapiens, UniProt P24941); assay: Kinase panel; type: biochemical
T3 construct: purchased Millipore KinaseProfiler

[5] = biological target: T4, Pim-3(h) (Homo sapiens, UniProt Q86V86); assay: Kinase panel; type: biochemical
T4 construct: purchased Millipore KinaseProfiler

[6] = biological target: PKCι (Homo sapiens, UniProt P41743); assay: Kinase IC50 assay; type: biochemical
Chain of PKCι (P41743 whole entry): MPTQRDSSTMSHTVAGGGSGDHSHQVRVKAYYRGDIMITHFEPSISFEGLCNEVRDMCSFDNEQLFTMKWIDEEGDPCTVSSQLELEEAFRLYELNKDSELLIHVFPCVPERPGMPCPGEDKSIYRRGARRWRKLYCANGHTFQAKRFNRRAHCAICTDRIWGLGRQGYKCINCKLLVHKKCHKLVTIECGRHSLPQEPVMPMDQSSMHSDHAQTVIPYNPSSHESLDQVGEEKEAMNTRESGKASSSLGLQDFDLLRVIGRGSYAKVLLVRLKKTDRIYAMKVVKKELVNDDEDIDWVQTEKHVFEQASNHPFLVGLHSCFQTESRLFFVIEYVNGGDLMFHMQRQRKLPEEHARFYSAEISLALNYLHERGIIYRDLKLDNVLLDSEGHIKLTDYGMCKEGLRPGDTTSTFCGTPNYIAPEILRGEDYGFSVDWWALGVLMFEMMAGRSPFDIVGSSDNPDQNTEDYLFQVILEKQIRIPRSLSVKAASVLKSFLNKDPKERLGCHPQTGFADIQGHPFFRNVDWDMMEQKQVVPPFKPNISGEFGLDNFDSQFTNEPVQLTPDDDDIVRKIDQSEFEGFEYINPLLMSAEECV

[7] = test system: CK1(y); assay: Kinase panel; type: biochemical, yeast
[8] = biological target: P70S6K (Homo sapiens, UniProt P23443); assay: Kinase IC50 assay; type: biochemical
Chain of P70S6K (P23443 whole entry): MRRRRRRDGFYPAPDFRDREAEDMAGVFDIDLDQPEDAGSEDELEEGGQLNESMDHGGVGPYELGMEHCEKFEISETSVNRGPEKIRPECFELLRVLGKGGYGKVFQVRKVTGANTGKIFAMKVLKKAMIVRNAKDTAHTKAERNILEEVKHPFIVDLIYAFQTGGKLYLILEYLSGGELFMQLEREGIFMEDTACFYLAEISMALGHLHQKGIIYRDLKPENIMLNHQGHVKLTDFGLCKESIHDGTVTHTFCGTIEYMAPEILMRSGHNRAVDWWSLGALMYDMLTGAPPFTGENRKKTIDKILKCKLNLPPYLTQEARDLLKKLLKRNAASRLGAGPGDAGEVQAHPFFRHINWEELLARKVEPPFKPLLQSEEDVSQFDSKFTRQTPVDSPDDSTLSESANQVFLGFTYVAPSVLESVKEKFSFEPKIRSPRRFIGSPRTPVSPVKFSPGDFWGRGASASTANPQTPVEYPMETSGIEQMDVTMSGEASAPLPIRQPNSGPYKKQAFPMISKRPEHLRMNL

[9] = biological target: T5, DYRK2(h) (Homo sapiens, UniProt Q92630); assay: Kinase panel; type: biochemical
T5 construct: purchased Millipore KinaseProfiler
T5 sequence (Q92630 1-601): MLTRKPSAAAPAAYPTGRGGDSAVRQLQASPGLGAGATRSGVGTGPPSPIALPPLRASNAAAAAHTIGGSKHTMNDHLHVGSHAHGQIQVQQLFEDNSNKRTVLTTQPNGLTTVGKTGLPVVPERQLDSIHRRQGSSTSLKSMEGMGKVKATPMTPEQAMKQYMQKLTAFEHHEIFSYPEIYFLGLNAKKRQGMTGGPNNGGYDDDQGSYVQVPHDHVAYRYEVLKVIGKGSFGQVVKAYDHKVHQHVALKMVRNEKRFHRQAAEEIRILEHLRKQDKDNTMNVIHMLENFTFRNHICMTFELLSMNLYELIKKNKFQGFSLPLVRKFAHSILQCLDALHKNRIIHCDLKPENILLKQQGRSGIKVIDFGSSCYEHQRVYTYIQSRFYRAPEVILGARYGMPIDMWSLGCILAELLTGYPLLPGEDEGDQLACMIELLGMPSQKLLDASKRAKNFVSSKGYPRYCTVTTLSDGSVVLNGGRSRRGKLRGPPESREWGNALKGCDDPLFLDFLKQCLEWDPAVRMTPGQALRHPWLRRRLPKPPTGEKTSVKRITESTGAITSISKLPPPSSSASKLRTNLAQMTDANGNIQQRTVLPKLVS

Cn1ncc(Cl)c1-c1cc(C(=O)N[C@H](CN)Cc2ccc(F)c(F)c2)oc1Cl [GSK2141795]
inhibition at 0.5 µM ([1]; 0.5 µM, read-out: % Inhibition): 2%
inhibition at 10 µM ([1]; 10 µM, read-out: % Inhibition): -17%
inhibition at 0.5 µM ([2]; 0.5 µM, read-out: % Inhibition): -6%
inhibition at 10 µM ([2]; 10 µM, read-out: % Inhibition): -14%
decrease of PRAS40 phosphorylation in tumors ([3]; 30 mg/kg QDx7 oral): 62%
inhibition at 0.5 µM ([4]; 0.5 µM, read-out: % Inhibition): 1%
inhibition at 10 µM ([4]; 10 µM, read-out: % Inhibition): 20%
inhibition at 0.5 µM ([5]; 0.5 µM, read-out: % Inhibition): -10%
inhibition at 10 µM ([5]; 10 µM, read-out: % Inhibition): -4%
IC50 [6]: > 1000 nM
% Inhibition ([7]; 0.5 µM): 35%
% Inhibition ([7]; 10 µM): 93%
IC50 [8]: 50 nM
inhibition at 0.5 µM ([9]; 0.5 µM, read-out: % Inhibition): 16%
inhibition at 10 µM ([9]; 10 µM, read-out: % Inhibition): 64%

Cn1ncc(Cl)c1-c1cc(C(=O)N[C@H](CN)Cc2cccc(F)c2)sc1Cl [GSK2110183]
inhibition at 0.5 µM [1]: -35%
inhibition at 10 µM [1]: -57%
inhibition at 0.5 µM [2]: 6%
inhibition at 10 µM [2]: -3%
decrease of PRAS40 phosphorylation in tumors ([3]; 10 mg/kg QDx7 oral): 8%
decrease of PRAS40 phosphorylation in tumors ([3]; 30 mg/kg QDx7 oral): 37%
decrease of PRAS40 phosphorylation in tumors ([3]; 100 mg/kg QDx7 oral): 61%
inhibition at 0.5 µM [4]: -10%
inhibition at 10 µM [4]: 1%
inhibition at 0.5 µM [5]: -25%
inhibition at 10 µM [5]: -13%
IC50 [6]: > 1000 nM
% Inhibition ([7]; 0.5 µM): 3%
% Inhibition ([7]; 10 µM): 54%
IC50 [8]: 251 nM
inhibition at 0.5 µM [9]: 2%
inhibition at 10 µM [9]: 24%
